Series [1] relates to CFU-C-8. The format is in vivo, mice. The protocol: A study on cytoprotective effect of the compound 1 was conducted.
Series [2] deals with hematopoietic stem cells. The series is described as follows: cloning method of hematopoietic stem cells in the spleens of irradiated mice (spleen colony formation by donor bone marrow cells, radioprotection). The format is in vivo. As for the experimental part: The study of radioprotective and cytoprotective properties of compound 1 and the complex compound 2 (ratio 1:3) by cloning method of hematopoietic stem cells in the spleens of irradiated mice.
1) Formation of spleen colonies by bone marrow cells of mice that received Compound 2 multiple times prior to irradiation at a dose of 1.5 Gy. Unlike compound 1, the complex form of compound 2 is water-soluble.
Compound 2 was administered orally to mice-donors of bone marrow at doses of 5 mg/kg and 2 mg/kg in 0.2 ml physiological solution for 5 days. […] Control mice received 0.2 ml of physiological solution for 5 days. 7 days after the last injection, mice were irradiated (1.5 Gy at installation “Luch-1”). 15 minutes later the animals were sacrificed, a bone marrow cell suspension was prepared and injected to lethally irradiated recipient mice for determination of the colony-forming ability.
2) Formation of spleen colonies by bone marrow cells of mice that received Compound 1, suspended in a starch gel, multiple times prior to irradiation at a dose of 1.5 Gy.
In the second series of experiments using the same experimental scheme and similar doses, the Compound 1 suspension was prepared in 2% starch gel. 90 female mice (CBA×C57B1/6) F1 were used in this study: 18 donors and 72 recipients.

“Also recorded” adds a separate entry of the source. Read-outs that look alike come from different tables or passages of the source.

On to `N.N.[Cl][Pt][Cl]` [Cisplatin, reference compound], for which the “CFU-C-8 Quantity on 10^5 bone marrow cells of donors” value in series [1] (mouse, in vivo) is 6.4 ± 0.6.

As to `c1ccc(C2C3=C(CCCC3)[Se]C3=C2CCCC3)cc1` [Compound 1, 9-phenyl-sym-octahydroselenoxanthene], the “Quantity of colonies on 105 cells of bone marrow M ± m” value in series [2] (Compound 1 2 mg/kg + Starch gel 2%, no irradiation, 2 mg/kg) is 24 ± 1.3; in series [2] (Compound 1 2 mg/kg + Starch gel 2%, no irradiation, listed as compound 1, 2 mg/kg), “statistically significant increase in the number of colonies”; in series [2] (Compound 1 2 mg/kg + Starch gel 2%, then 1.5 Gy irradiation), 9.1 ± 0.3; in series [2] (Compound 1 5 mg/kg + Starch gel 2%, no irradiation, 5 mg/kg), 28.7 ± 1.1; in series [2] (Compound 1 5 mg/kg + Starch gel 2%, no irradiation, listed as compound 1, 5 mg/kg) it was “statistically significant increase in the number of colonies”; in series [2] (Compound 1 5 mg/kg + Starch gel 2%, then 1.5 Gy irradiation) it was 9.5 ± 0.8. For the same molecule, the “adaptive response of hematopoietic stem cells to irradiation / radioprotective effect (in words)” value in series [2] (treatment for 5 days prior to irradiation 1.5 Gy, both doses (5 and 2 mg/kg)) is given as “absent; also recorded: does not provide the radioprotective effect”. Moreover, the “CFU-C-8 Quantity on 10^5 bone marrow cells of donors” value in series [1] (Compound 1 5 mg/kg 7 days prior to single Cisplatin 5 mg/kg) was 9.6 ± 0.3; in series [1] (Compound 1 5 mg/kg, no Cisplatin), 12.6 ± 0.6. Besides, in series [1] (administered 7 days prior to a single injection of cisplatin), the “adaptive response of CFU-S-8 to cisplatin (in words)” value is listed as “distinct adaptive response”.
